Measured values reported in patent US7576086B2, “Aralkyl-alcohol peiperazine derivatives and their uses as antidepressant” (Shanghai Institute of Pharmaceutical Industry, priority 2002, dated 2009).

Columns and labels:
[1] = tested on: Brain Synaptosome Uptake of NA; assay: Inhibition of [3H]-NA uptake by brain synaptosomes; assay type: biochemical, rats; conditions: 0.1 mmol/L; rat frontal cortex synaptosomes; inhibited ratio by Desipramine counts 100%
Text: (§1) The trial of uptaking the mono-amines neurotransmitter by synaptosomes is now one of the common method to study the central nervous pharmacology. This method is not only used to study the action mechanism of the medicament, but also to look for new antidepressant drugs which act on this tache. […] The method is recounted as follows:
(§2) (1). Preparation of synaptosomes. According to the described method by literatures (a. Biochem Pharmacol 1973, 22: 311-322, b. Methods in Neurochemistry, Vol. 2, New York: Marcel Dakker, Inc, 1972, 1-52), rats were decapitated, the brains rapidly excised, and frontal cortex dissected out on ice-cold saline (4° C.). The 3 g tissue was homogenized in 30 ml of ice-cold 0.32M sucrose and then centrifuged (1500 g) for 10 min (4° C.). The pellet was discarded and the supernatant centrifuged (20000 g) for 30 min (4° C.). After refined, the pellet was resuspended in buffer and immediately used. Protein content was deter mined with kit of total protein.
(§3) (2). Uptake of 5-HT. According to the described method by literatures (Br J Pharmacol, 1997, 122: 302-306; b. 1992, 105: 147-151), in the tubes, 1.0 ml artificial cerebral fluid, 20 μl suspension of synaptosomes and 10 μl solution of compound were added. After mixing, the tubes were incubated 5 min in 37° C. Uptake was started by addition of 10 μl [^3H]-5-HT or [^3H]-NA (300 nM), after another mixing, the tubes were incubated again 5 min in 37° C. The reaction was stopped by cooling the tubes in ice, the samples were then filtered through glass fibre filters and washed twice with artificial cerebral fluid. After drying in 60-70° C., the filter membranes were put into scintillation tubes. Filter-bound radioactivity was counted by scintillation spectrometry. The difference in [^3H]-5-HT or [^3H]-NA at 37° C. and 0° C. was taken as a measure of active uptake.

mouse [2] = assay: Mouse forced swimming test; assay type: in vivo; conditions: control 93.4±27.36
Method: (§4) Using the tail suspension test of “behavioural despair” and the mouse forced swimming test, and choosing Desipra mine as control medicament, to study the primary antidepressant effect of IV-19 that has the strong inhibited effect for both uptake of 5-HT and NA. The results are as follows:
(2). In the mouse forced swimming test, IV-19 also can diminish obviously the immobile times of mouse in water due to despair. As the results of tail suspension test, the effect induced by 50 mg/kg IV-19 (46.3±30.2 sec) is the same as 10 mg/kg Desipra mine (46±27.36 sec), but a significant difference occurs when comparing with control (93.4±27.36).

mouse [3] = assay: Tail suspension test of behavioural despair; assay type: in vivo; conditions: control 89.7±38.27
Method: as §4
(1). In the tail suspension test, IV-19 can diminish obviously the immobile times of mouse due to despair. The effect induced by 50 mg/kg IV-19 (20.2±16.05 sec) is the same as 10 mg/kg Desipra mine (27.5±21.93 sec), but a significant difference occurs when comparing with control (89.7±38.27).

[4] = tested on: Brain Synaptosome Uptake of 5-HT; assay: Inhibition of [3H]-5-HT uptake by brain synaptosomes; assay type: biochemical, rats; conditions: 0.1 mmol/L; rat frontal cortex synaptosomes; inhibited ratio by Fluoxetine counts 100%
Text: as §1, §2, §3

[5] = tested on: S. Typhimurium TA97, TA98, TA100 and TA102; assay: Bacterial reverse-mutation assay (Ames TS); assay type: cell-based
Text: 4. Bacterial reverse-mutation assay (Ames TS) of IV-19
Bacillus: S. Typhimurium TA97, TA98, TA100 and TA102
All tested doses didn't induce the evident increase of revertants, Ames TS of […] is negative.

mice = assay: Acute toxicity; assay type: in vivo; conditions: p.o. in mice, calculated with Bliss

| Compound | Inhibited ratio of uptake for NA(%) [1] | Inhibited ratio of uptake for 5-HT(%) [4] | further results |
| --- | --- | --- | --- |
| CNCCCN1c2ccccc2CCc2ccccc21 [Desipra mine, reference compound] | 100% |  | immobile times of mouse in water, forced swimming test (mouse [2]; 10 mg/kg): 46 ± 27.36 s; immobile times of mouse, tail suspension test (mouse [3]; 10 mg/kg): 27.5 ± 21.93 s |
| Cl.Cl.OC(c1ccccc1)C(c1ccccc1)N1CCN(Cc2ccccc2)CC1 (centres unmarked) [IV-8, N^1-benzyl-N^4-[(1,2-diphenyl)ethyl-2-ol] piperazine dihydrochloride] | 104% | <10% |  |
| Cl.Cl.OC(CN1CCN(Cc2ccc(F)cc2)CC1)c1ccc(Cl)cc1 (centres unmarked) [IV-11, N^1-(4-fluorobenzyl)-N^4-[2-(4-chlorophenyl)ethyl-2-ol] piperazine dihydrochloride] | 101% | 81% |  |
| COc1ccc2cc(C(O)C(C)N3CCN(c4cccc(Cl)c4)CC3)ccc2c1Cl.Cl.Cl (centres unmarked) [IV-17, N^1-(3-chlorophenyl)-N^4-[1-(5-chloro-6-methoxyl-naphthalen-2-yl)-propane-2-yl-1-ol] piperazine dihydrochloride] | 30% | 99% |  |
| COc1ccc2cc(C(O)C(C)N3CCN(CC(O)c4ccccc4)CC3)ccc2c1Cl.Cl.Cl (centres unmarked) [IV-18, N^1-(2-phenylethyl-2-ol)-N^4-[1-(5-chloro-6-methoxyl-naphthalen-2-yl)-propane-2-yl-1-ol] piperazine dihydrochloride] | 23% | 127% |  |
| COc1ccc2cc(C(O)C(C)N3CCN(Cc4ccc([N+](=O)[O-])cc4)CC3)ccc2c1Cl.Cl.Cl (centres unmarked) [IV-20, N^1-(4-nitrobenzyl)-N^4-[1-(5-chloro-6-methoxyl-naphthalen-2-yl)-propane-2-yl-1-ol] piperazine dihydrochloride] | 108% | 110% |  |
| COc1cc(CN2CCN(C(C)C(O)c3ccc4c(Cl)c(OC)ccc4c3)CC2)cc(OC)c1OC.Cl.Cl (centres unmarked) [IV-22, N^1-(3,4,5-trimethoxybenzyl)-N^4-[1-(5-chloro-6-methoxyl-naphthalen-2-yl)-propane-2-yl-1-ol] piperazine dihydrochloride] | 77% | 116% |  |
| N^1-(4-chlorobenzyl)-N^4-(phenylpropane-2-yl-3-ol) piperazine dihydrochloride [IV-2] | 62% | 82% |  |
| N^1-(4-fluorobenzyl)-N^4-(2-phenylethyl-2-ol) piperazine dihydrochloride [IV-6] | 107% | 79% |  |
| N^1-(4-nitrobenzyl)-N^4-(2-phenylethyl-2-ol) piperazine dihydrochloride [IV-26] | 80% | 63% |  |
| N^1-(R-1-phenylethyl)-N^4-[1-(5-chloro-6-methoxyl-naphthalen-2-yl)-propane-2-yl-1-ol] piperazine dihydrochloride [IV-35] | 58% | 107% |  |
| N^1-(S-1-phenylethyl)-N^4-[1-(5-chloro-6-methoxyl-naphthalen-2-yl)-propane-2-yl-1-ol] piperazine dihydrochloride [IV-34] | 10% | 108% |  |
| N^1-benzyl-N^4-[1-(5-chloro-6-methoxyl-naphthalen-2-yl)-propane-2-yl-1-ol] piperazine dihydrochloride [IV-19] | 140% | 114% | Ames TS result (increase of revertants) ([5]; TA97, TA98, TA100, TA102, without S9 and with S9, all tested doses): negative; inhibitory effect for the growth of bacteria ([5]; TA97, with S9, 5000 μg/utensil): inhibitory effect; inhibitory effect for the growth of bacteria ([5]; TA98, without S9, 5000 μg/utensil): inhibitory effect; LD50 (mice): about 1 g/kg; immobile times of mouse in water, forced swimming test (mouse [2]; 50 mg/kg): 46.3 ± 30.2 s; immobile times of mouse, tail suspension test (mouse [3]; 50 mg/kg): 20.2 ± 16.05 s |
| N^1-benzyl-N^4-[2-(4-chlorophenyl)ethyl-2-ol] piperazine dihydrochloride [IV-4] | 51% | 85% |  |
